Reference: PubChem BioAssay (NCI)
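Each compound was tested at five concentrations against cells in 96-well plates for 48 hours. TGI marks complete inhibition of growth.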

How the values were obtained:
Assay in all cases: NCI anticancer screen, dose series, 48 h
786-0 renal = system: 786-0 renal
A549 NSCLC = system: A549 NSCLC
CAKI-1 renal = system: CAKI-1 renal
CCRF-CEM leukemia = system: CCRF-CEM leukemia
COLO 205 colon = system: COLO 205 colon
DLD-1 colon = system: DLD-1 colon
DMS 273 small cell lung = system: DMS 273 small cell lung
EKVX NSCLC = system: EKVX NSCLC
HCT-116 colon = system: HCT-116 colon
HCT-15 colon = system: HCT-15 colon
HL-60(TB) leukemia = system: HL-60(TB) leukemia
HOP-62 NSCLC = system: HOP-62 NSCLC
HOP-92 NSCLC = system: HOP-92 NSCLC
HT29 colon = system: HT29 colon
IGROV1 ovarian = system: IGROV1 ovarian
K-562 leukemia = system: K-562 leukemia
KM20L2 colon = system: KM20L2 colon
LOX IMVI melanoma = system: LOX IMVI melanoma
LXFL 529 NSCLC = system: LXFL 529 NSCLC
M14 melanoma = system: M14 melanoma
M19-MEL melanoma = system: M19-MEL melanoma
MALME-3M melanoma = system: MALME-3M melanoma
MOLT-4 leukemia = system: MOLT-4 leukemia
NCI-H226 lung = system: NCI-H226 lung
NCI-H23 lung = system: NCI-H23 lung
NCI-H460 lung = system: NCI-H460 lung
NCI-H522 lung = system: NCI-H522 lung
OVCAR-3 ovarian = system: OVCAR-3 ovarian
OVCAR-4 ovarian = system: OVCAR-4 ovarian
OVCAR-8 ovarian = system: OVCAR-8 ovarian
RPMI-8226 leukemia = system: RPMI-8226 leukemia
RXF 393 renal = system: RXF 393 renal
RXF-631 renal = system: RXF-631 renal
SF-268 CNS = system: SF-268 CNS
SF-295 CNS = system: SF-295 CNS
SK-MEL-28 melanoma = system: SK-MEL-28 melanoma
SK-MEL-5 melanoma = system: SK-MEL-5 melanoma
SK-OV-3 ovarian = system: SK-OV-3 ovarian
SNB-19 CNS = system: SNB-19 CNS
SNB-75 CNS = system: SNB-75 CNS
SNB-78 CNS = system: SNB-78 CNS
SR leukemia = system: SR leukemia
SW-620 colon = system: SW-620 colon
TK-10 renal = system: TK-10 renal
U251 CNS = system: U251 CNS
UACC-257 melanoma = system: UACC-257 melanoma
UO-31 renal = system: UO-31 renal
A498 renal = system: A498 renal
ACHN renal = system: ACHN renal
DMS 114 small cell lung = system: DMS 114 small cell lung
HCC-2998 colon = system: HCC-2998 colon
KM12 colon = system: KM12 colon
OVCAR-5 ovarian = system: OVCAR-5 ovarian
SF-539 CNS = system: SF-539 CNS
SK-MEL-2 melanoma = system: SK-MEL-2 melanoma
SN12C renal = system: SN12C renal
UACC-62 melanoma = system: UACC-62 melanoma
XF 498 CNS = system: XF 498 CNS

`CN1C(c2ccccc2)CC(=Nc2ccccc2)CC1c1ccccc1` (centres undefined) gave a TGI (786-0 renal) of 27.7 µM, a TGI (A549 NSCLC) of 44.9 µM and a TGI (CAKI-1 renal) of 42.3 µM. It also gave a TGI (CCRF-CEM leukemia) greater than 100 µM, a TGI (COLO 205 colon) of 22.8 µM and a TGI (DLD-1 colon) of 24.2 µM. For the same molecule, the TGI (DMS 273 small cell lung) was 22 µM, the TGI (EKVX NSCLC) was 56.5 µM and the TGI (HCT-116 colon) was 16.4 µM. It also gave a TGI (HCT-15 colon) of 29.9 µM, a TGI (HL-60(TB) leukemia) greater than 100 µM and a TGI (HOP-62 NSCLC) of 34.6 µM. It also gave a TGI (HOP-92 NSCLC) of 22 µM, a TGI (HT29 colon) of 34.2 µM and a TGI (IGROV1 ovarian) of 38.4 µM. The TGI (K-562 leukemia) was greater than 100 µM, the TGI (KM20L2 colon) was 26.5 µM and the TGI (LOX IMVI melanoma) was 16.8 µM. For the same molecule, the TGI (LXFL 529 NSCLC) was 16.4 µM, the TGI (M14 melanoma) was 27.9 µM and the TGI (M19-MEL melanoma) was 15.7 µM. The TGI (MALME-3M melanoma) was 22.9 µM, the TGI (MOLT-4 leukemia) was 28.7 µM and the TGI (NCI-H226 lung) was 25.6 µM. For the same molecule, the TGI (NCI-H23 lung) was 39.9 µM, the TGI (NCI-H460 lung) was 33.9 µM and the TGI (NCI-H522 lung) was 17.4 µM. It also gave a TGI (OVCAR-3 ovarian) of 24 µM, a TGI (OVCAR-4 ovarian) of 31 µM and a TGI (OVCAR-8 ovarian) of 20.6 µM. For the same molecule, the TGI (RPMI-8226 leukemia) was 13.7 µM, the TGI (RXF 393 renal) was 31.4 µM and the TGI (RXF-631 renal) was 67.6 µM. For the same molecule, the TGI (SF-268 CNS) was 28.7 µM, the TGI (SF-295 CNS) was 31.1 µM and the TGI (SK-MEL-28 melanoma) was 23.2 µM. It also gave a TGI (SK-MEL-5 melanoma) of 22.8 µM, a TGI (SK-OV-3 ovarian) of 8.12 µM and a TGI (SNB-19 CNS) of 27.8 µM. The TGI (SNB-75 CNS) was 50.4 µM, the TGI (SNB-78 CNS) was 37.2 µM and the TGI (SR leukemia) was 34.5 µM. The TGI (SW-620 colon) was 22.9 µM, the TGI (TK-10 renal) was 36.9 µM and the TGI (U251 CNS) was 19.6 µM. It also gave a TGI (UACC-257 melanoma) of 24.1 µM and a TGI (UO-31 renal) of 47.8 µM.
`Cc1cc2c(C(C)C)c(O)c(O)c3coc(/c1=c1/c(C)cc4c(C(C)C)c(=O)c(=O)c5coc1c45)c32` gave a TGI (786-0 renal) of 22.1 µM, a TGI (A498 renal) of 24.8 µM and a TGI (A549 NSCLC) of 15.6 µM. It also gave a TGI (ACHN renal) of 12.3 µM, a TGI (CAKI-1 renal) of 26.9 µM and a TGI (CCRF-CEM leukemia) of 16.6 µM. The TGI (COLO 205 colon) was 5.34 µM, the TGI (DLD-1 colon) was 16.4 µM and the TGI (DMS 114 small cell lung) was 6.48 µM. For the same molecule, the TGI (DMS 273 small cell lung) was 13.8 µM, the TGI (EKVX NSCLC) was 16.4 µM and the TGI (HCC-2998 colon) was 14.8 µM. It also gave a TGI (HCT-116 colon) of 10.8 µM, a TGI (HCT-15 colon) of 15.6 µM and a TGI (HL-60(TB) leukemia) of 17.8 µM. For the same molecule, the TGI (HOP-62 NSCLC) was 23.7 µM, the TGI (HOP-92 NSCLC) was 7.11 µM and the TGI (HT29 colon) was 14.4 µM. It also gave a TGI (IGROV1 ovarian) of 15.1 µM, a TGI (K-562 leukemia) of 16.5 µM and a TGI (KM12 colon) of 14.9 µM. For the same molecule, the TGI (KM20L2 colon) was 18.1 µM, the TGI (LOX IMVI melanoma) was 18 µM and the TGI (LXFL 529 NSCLC) was 12.7 µM. It also gave a TGI (M14 melanoma) of 25.5 µM, a TGI (M19-MEL melanoma) of 19.7 µM and a TGI (MALME-3M melanoma) of 29.1 µM. The TGI (MOLT-4 leukemia) was 17.4 µM, the TGI (NCI-H226 lung) was 22.9 µM and the TGI (NCI-H23 lung) was 9.2 µM. It also gave a TGI (NCI-H460 lung) of 16.2 µM, a TGI (NCI-H522 lung) of 19 µM and a TGI (OVCAR-3 ovarian) of 16.6 µM. The TGI (OVCAR-4 ovarian) was 22.8 µM, the TGI (OVCAR-5 ovarian) was 32.4 µM and the TGI (OVCAR-8 ovarian) was 17.1 µM. It also gave a TGI (RPMI-8226 leukemia) of 34.5 µM, a TGI (RXF 393 renal) of 23.1 µM and a TGI (RXF-631 renal) of 22 µM. It also gave a TGI (SF-268 CNS) of 24.1 µM, a TGI (SF-295 CNS) of 16.2 µM and a TGI (SF-539 CNS) of 12.9 µM. For the same molecule, the TGI (SK-MEL-2 melanoma) was 17.9 µM, the TGI (SK-MEL-28 melanoma) was 22.2 µM and the TGI (SK-MEL-5 melanoma) was 28.6 µM. It also gave a TGI (SK-OV-3 ovarian) of 33.7 µM, a TGI (SN12C renal) of 23.7 µM and a TGI (SNB-19 CNS) of 15.6 µM. The TGI (SNB-75 CNS) was 23.1 µM, the TGI (SNB-78 CNS) was 25.2 µM and the TGI (SW-620 colon) was 17.4 µM. It also gave a TGI (TK-10 renal) of 27.8 µM, a TGI (U251 CNS) of 14.3 µM and a TGI (UACC-257 melanoma) of 31 µM. It also gave a TGI (UACC-62 melanoma) of 13.5 µM, a TGI (UO-31 renal) of 31.1 µM and a TGI (XF 498 CNS) of 17.4 µM.
